Patent US20120165309A1, “HETERO RING DERIVATIVE” (Astellas Pharma Inc., priority 2009, published 2012)

Tests used:
human PI3Kδ enzyme = target: T1, human PI3Kδ enzyme (Homo sapiens, UniProt O00329); experiment: PI3Kδ enzyme inhibitory activity (PI3-Kinase HTRF Assay kit); format: biochemical; settings: human PI3Kδ 10 ng/well, ATP 30 μM, PIP2 10 μM, room temperature 30 minutes
T1 construct: purchased Millipore Corporation 14-604
Description: 1. PI3Kδ Enzyme Inhibitory Activity
For the experiment, a PI3-Kinase HTRF Assay kit (Millipore Corporation, Catalogue No. 33-016) and a human PI3Kδ enzyme (Millipore Corporation, Catalogue No. 14-604) were used. The measurement method was in accordance with the appended instructions. The overview thereof is as follows.
PI3Kδ (10 ng/well), phosphatidylinositol-4,5-bisphosphate (10 μM), ATP (30 μM), and the test compound were mixed in a 384-well plate (total 20 μL), and incubated at room temperature for 30 minutes. EDTA and biotinylated phosphatidylinositol-3,4,5-triphosphate were added thereto to stop the reaction. Thereafter, a Europium labeled anti-GST antibody, a GST bond GRP1 PH domain, and streptavidin-APC were added thereto, followed by incubation overnight. An HTRF ratio was measured using an HTRF plate reader. The IC50 value of the compound was calculated, taking the inhibition rate without addition of the enzyme as 100% and the inhibition rate without addition of the test compound as 0%, by means of a logistic method.
(§1) In the Table, Ex represents Example Compound No. as described later, PI3Kδ represents the IC50 value (nM) of a PI3Kδ enzyme inhibitory activity, and PI3Kα represents the IC50 value (nM) of a PI3Kα enzyme inhibitory activity.

Human PI3Kα = target: T2, Human PI3Kα (Homo sapiens, UniProt P42336); experiment: PI3Kα enzyme inhibitory activity (Kinase-Glo Plus luminescence); format: biochemical; settings: Human PI3Kα 12 ng/well, phosphatidylinositol 0.2 μg/well, 37° C. for 3 hours
T2 construct: purchased Millipore Corporation 14-602
Description: 2. PI3Kα Enzyme Inhibitory Activity
Human PI3Kα (12 ng/well, Millipore Corporation, Catalogue No. 14-602), phosphatidylinositol (0.2 μg/well), and the test compound were mixed in a 384-well plate in a reaction buffer (50 mM Hepes, 10 mM NaCl, 10 mM MgCl2, 2 mM EGTA, 2 mM DTT, pH 7.3) (total 10 μl), and incubated at 37° C. for 3 hours. After the reaction, 10 μL of a Kinase-Glo Plus reagent (Promega, Catalogue No. V3772) was added thereto, and a luminescence was measured with a luminometer. The IC50 value of the compound was calculated, taking the inhibition rate without addition of the enzyme as 100% and the inhibition rate without addition of the test compound as 0%, by a logistic method.
as §1

T2 sequence (P42336 whole entry): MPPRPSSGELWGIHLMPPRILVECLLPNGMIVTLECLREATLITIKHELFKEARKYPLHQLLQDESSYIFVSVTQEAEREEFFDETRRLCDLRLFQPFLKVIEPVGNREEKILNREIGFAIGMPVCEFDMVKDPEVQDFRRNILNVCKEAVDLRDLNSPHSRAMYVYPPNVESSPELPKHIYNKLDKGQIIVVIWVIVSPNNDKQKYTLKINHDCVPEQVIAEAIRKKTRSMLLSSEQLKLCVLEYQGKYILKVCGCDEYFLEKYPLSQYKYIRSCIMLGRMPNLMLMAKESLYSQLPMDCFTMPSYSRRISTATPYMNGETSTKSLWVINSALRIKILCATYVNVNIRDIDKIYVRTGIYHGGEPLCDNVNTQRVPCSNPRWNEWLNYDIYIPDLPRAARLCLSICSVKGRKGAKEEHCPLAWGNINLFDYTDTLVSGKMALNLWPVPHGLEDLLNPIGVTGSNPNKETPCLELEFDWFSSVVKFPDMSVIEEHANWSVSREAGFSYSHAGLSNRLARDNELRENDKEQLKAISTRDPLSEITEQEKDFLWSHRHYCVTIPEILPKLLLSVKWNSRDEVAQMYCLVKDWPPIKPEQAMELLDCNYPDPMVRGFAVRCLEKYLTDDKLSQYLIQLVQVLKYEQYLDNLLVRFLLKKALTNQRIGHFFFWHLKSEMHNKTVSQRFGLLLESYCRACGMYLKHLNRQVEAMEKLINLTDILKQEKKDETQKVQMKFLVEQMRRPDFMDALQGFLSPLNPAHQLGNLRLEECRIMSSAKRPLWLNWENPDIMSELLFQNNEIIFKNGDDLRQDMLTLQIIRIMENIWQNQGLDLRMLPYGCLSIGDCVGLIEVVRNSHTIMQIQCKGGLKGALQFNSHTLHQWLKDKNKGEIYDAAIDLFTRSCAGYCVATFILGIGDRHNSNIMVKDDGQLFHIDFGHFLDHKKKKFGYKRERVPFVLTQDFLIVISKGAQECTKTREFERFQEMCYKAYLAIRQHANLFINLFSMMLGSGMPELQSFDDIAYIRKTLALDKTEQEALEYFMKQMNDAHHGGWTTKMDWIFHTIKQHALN
T2 sequence (P27986 whole entry partner): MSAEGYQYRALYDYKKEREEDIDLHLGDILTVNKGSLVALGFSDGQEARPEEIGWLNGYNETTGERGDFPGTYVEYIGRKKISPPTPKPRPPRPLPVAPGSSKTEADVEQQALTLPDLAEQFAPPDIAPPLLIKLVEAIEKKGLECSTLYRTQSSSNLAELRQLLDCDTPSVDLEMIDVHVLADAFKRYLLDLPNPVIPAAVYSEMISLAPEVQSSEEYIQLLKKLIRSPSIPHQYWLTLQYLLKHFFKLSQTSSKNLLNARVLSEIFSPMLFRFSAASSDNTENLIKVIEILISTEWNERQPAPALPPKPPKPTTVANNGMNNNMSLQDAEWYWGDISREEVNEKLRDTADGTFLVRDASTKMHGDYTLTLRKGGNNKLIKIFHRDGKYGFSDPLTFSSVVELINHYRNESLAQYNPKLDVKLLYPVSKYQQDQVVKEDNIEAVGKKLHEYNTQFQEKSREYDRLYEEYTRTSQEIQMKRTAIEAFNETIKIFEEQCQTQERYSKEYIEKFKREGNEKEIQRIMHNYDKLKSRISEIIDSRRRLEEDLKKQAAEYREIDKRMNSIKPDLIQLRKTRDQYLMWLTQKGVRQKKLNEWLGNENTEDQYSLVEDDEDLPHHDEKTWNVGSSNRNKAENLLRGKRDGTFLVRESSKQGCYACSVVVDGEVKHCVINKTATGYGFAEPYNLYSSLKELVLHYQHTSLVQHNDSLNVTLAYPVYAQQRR
T1 sequence (O00329 whole entry): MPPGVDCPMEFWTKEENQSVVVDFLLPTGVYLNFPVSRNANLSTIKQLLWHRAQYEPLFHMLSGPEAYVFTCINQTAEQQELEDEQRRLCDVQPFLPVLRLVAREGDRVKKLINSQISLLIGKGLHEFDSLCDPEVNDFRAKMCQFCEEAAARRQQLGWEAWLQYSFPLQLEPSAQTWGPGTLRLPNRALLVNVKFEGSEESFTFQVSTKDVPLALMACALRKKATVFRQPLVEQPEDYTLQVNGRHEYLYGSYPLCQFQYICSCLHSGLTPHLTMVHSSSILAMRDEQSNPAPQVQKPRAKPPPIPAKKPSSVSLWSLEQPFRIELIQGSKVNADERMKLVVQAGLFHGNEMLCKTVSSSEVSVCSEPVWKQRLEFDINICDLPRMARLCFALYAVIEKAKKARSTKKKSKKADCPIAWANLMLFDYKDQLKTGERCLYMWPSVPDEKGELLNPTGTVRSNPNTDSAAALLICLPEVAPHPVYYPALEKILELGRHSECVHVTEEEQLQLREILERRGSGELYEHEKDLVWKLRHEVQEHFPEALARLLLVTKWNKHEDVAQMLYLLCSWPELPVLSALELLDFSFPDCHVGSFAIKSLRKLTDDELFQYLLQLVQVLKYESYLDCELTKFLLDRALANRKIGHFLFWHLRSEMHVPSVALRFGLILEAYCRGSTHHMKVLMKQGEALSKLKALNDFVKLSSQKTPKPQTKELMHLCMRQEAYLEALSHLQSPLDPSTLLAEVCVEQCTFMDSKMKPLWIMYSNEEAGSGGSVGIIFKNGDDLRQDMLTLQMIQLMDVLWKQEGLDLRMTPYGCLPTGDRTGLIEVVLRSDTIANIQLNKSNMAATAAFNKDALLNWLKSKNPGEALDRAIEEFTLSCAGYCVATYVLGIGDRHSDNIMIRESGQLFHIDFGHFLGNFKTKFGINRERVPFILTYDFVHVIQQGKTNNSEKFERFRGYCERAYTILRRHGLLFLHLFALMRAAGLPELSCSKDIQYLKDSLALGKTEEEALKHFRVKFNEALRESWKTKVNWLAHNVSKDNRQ
T1 sequence (P27986 whole entry partner): as the sequence (P27986 whole entry partner) above

Row | SMILES | IC50 (human PI3Kδ enzyme) [nM] | IC50 (Human PI3Kα) [nM]
1 | CNC(=O)N[C@H]1CC[C@H](Nc2nc(N3CCOCC3)nc(-n3c(C(F)F)nc4ccccc43)n2)CC1 [Example 5, 1-[trans-4-({4-[2-(difluoromethyl)-1H-benzimidazol-1-yl]-6-morpholin-4-yl-1,3,5-triazin-2-yl}amino)cyclohexyl]-3-methylurea] | 11 | 210
2 | O=C(NCCN1CCOCC1)N[C@H]1CC[C@H](Nc2nc(N3CCOCC3)nc(-n3c(C(F)F)nc4ccccc43)n2)CC1 [Example 6, 1-[trans-4-({4-[2-(difluoromethyl)-1H-benzimidazol-1-yl]-6-morpholin-4-yl-1,3,5-triazin-2-yl}amino)cyclohexyl]-3-(2-morpholin-4-ylethyl)urea] | 4.6 | 330
3 | FC(F)c1nc2ccccc2n1-c1nc(N[C@H]2CC[C@H](N3CCOCC3)CC2)nc(N2CCOCC2)n1 [Example 10, 4-[2-(difluoromethyl)-1H-benzimidazol-1-yl]-6-morpholin-4-yl-N-(trans-4-morpholin-4-ylcyclohexyl)-1,3,5-triazin-2-amine] | 7.1 | 1500
4 | CC(=O)N(C)[C@H]1CC[C@H](Nc2nc(N3CCOCC3)nc(-n3c(C(F)F)nc4ccccc43)n2)CC1 [Example 14, N-[trans-4-({4-[2-(difluoromethyl)-1H-benzimidazol-1-yl]-6-morpholin-4-yl-1,3,5-triazin-2-yl}amino)cyclohexyl]-N-methylacetamide] | 4.4 | 1400
5 | O=S1(=O)CCCN1[C@H]1CC[C@H](Nc2cc(-n3c(C(F)F)nc4ccccc43)nc(N3CCOCC3)n2)CC1 [Example 18, 6-[2-(difluoromethyl)-1H-benzimidazol-1-yl]-N-[trans-4-(1,1-dioxidoisothiazolin-2-yl)cyclohexyl]-2-morpholin-4-ylpyrimidin-4-amine] | 5 | 2900
6 | N[C@H]1CC[C@H](Nc2nc(N3CCOCC3)nc(-n3c(C(F)F)nc4ccccc43)n2)CC1 [Example 27] | 20 | 990
7 | O=C(N[C@H]1CC[C@H](Nc2nc(N3CCOCC3)nc(-n3c(C(F)F)nc4ccccc43)n2)CC1)C(O)CO (some centres unmarked) [Example 39] | 9.5 | 470
8 | CN(C)CC(=O)N(C)[C@H]1CC[C@H](Nc2nc(N3CCOCC3)nc(-n3c(C(F)F)nc4ccccc43)n2)CC1 [Example 47] | 16 | 900
9 | O=C(CS(=O)(=O)c1ccccc1)N[C@H]1CC[C@H](Nc2nc(N3CCOCC3)cc(-n3c(C(F)F)nc4ccccc43)n2)CC1 [Example 52] | 3.4 | 2700
10 | Cc1ccc(S(=O)(=O)NCC(=O)N[C@H]2CC[C@H](Nc3nc(N4CCOCC4)cc(-n4c(C(F)F)nc5ccccc54)n3)CC2)cc1 [Example 53] | 4.6 | 2700
11 | O=S(=O)(N[C@H]1CC[C@H](Nc2cc(-n3c(C(F)F)nc4ccccc43)nc(N3CCOCC3)n2)CC1)c1ccccc1 [Example 95] | 4.9 | 2500
12 | Oc1ccccc1CN[C@H]1CC[C@H](Nc2nc(N3CCOCC3)nc(-n3c(C(F)F)nc4ccccc43)n2)CC1 [Example 104] | 2.1 | 810
13 | CC(N[C@H]1CC[C@H](Nc2nc(N3CCOCC3)nc(-n3c(C(F)F)nc4ccccc43)n2)CC1)C1CCCCC1 (some centres unmarked) [Example 107] | 8.8 | 
14 | CC(N[C@H]1CC[C@H](Nc2nc(N3CCOCC3)nc(-n3c(C(F)F)nc4ccccc43)n2)CC1)c1ccccc1O (some centres unmarked) [Example 108] | 2.8 | 2200
15 | CN1CCC[C@@H](C(=O)N[C@H]2CC[C@H](Nc3nc(N4CCOCC4)cc(-n4c(C(F)F)nc5ccccc54)n3)CC2)C1 [Example 112] | 4.6 | 1400
16 | O=C(NCc1ccc(F)cc1)N[C@H]1CC[C@H](Nc2nc(N3CCOCC3)nc(-n3c(C(F)F)nc4ccccc43)n2)CC1 [Example 116] | 5.2 | 180
17 | N#Cc1ccc(NC(=O)N[C@H]2CC[C@H](Nc3nc(N4CCOCC4)cc(-n4c(C(F)F)nc5ccccc54)n3)CC2)cc1 [Example 123] | 0.85 | 460
18 | N#Cc1ccc(NC(=O)N[C@H]2CC[C@H](Nc3cc(-n4c(C(F)F)nc5ccccc54)nc(N4CCOCC4)n3)CC2)cc1 [Example 125] | 1.8 | > 3000
19 | O=C(N[C@H]1CC[C@H](Nc2nc(N3CCOCC3)cc(-n3c(C(F)F)nc4ccccc43)n2)CC1)[C@@H]1CCCN1 [Example 154] | 3.8 | 1800
20 | O=C1CCCN1[C@H]1CC[C@H](Nc2cc(-n3c(C(F)F)nc4ccccc43)nc(N3CCOCC3)n2)CC1 [Example 185] | 4.3 | > 3000
21 | O=C(CN1CCCC1)N[C@H]1CC[C@H](Nc2nc(N3CCOCC3)cc(-n3c(C(F)F)nc4ccccc43)n2)CC1 [Example 187] | 9.1 | 

Row | SMILES | IC50 (human PI3Kδ enzyme) [nM] | IC50 (Human PI3Kα) [nM]
22 | O=C(CN1CCCCCC1)N[C@H]1CC[C@H](Nc2cc(-n3c(C(F)F)nc4ccccc43)nc(N3CCOCC3)n2)CC1 [Example 190] | 4.1 | > 3000
23 | CC(=O)N[C@H]1CC[C@H](Nc2nc(N3CCOCC3)nc(-n3c(C(F)F)nc4ccccc43)n2)CC1 [Example 193] | 23 | 550
24 | CN(C)CCC(=O)N[C@H]1CC[C@H](Nc2nc(N3CCOCC3)cc(-n3c(C(F)F)nc4ccccc43)n2)CC1 [Example 208] | 8.6 | 2300
25 | O=S1(=O)CCCN1[C@H]1CC[C@H](COc2cc(-n3c(C(F)F)nc4ccccc43)nc(N3CCOCC3)n2)CC1 [Example 209] | 20 | 2800
26 | CC(C)(C)OC(=O)NC(C)(C)C(=O)N[C@H]1CC[C@H](Nc2nc(N3CCOCC3)cc(-n3c(C(F)F)nc4ccccc43)n2)CC1 [Example 210] | 22 | 5100
27 | FC(F)c1nc2ccccc2n1-c1cc(OC[C@H]2CC[C@H](N3CCOCC3)CC2)nc(N2CCOCC2)n1 [Example 216] | 5.6 | > 3000
28 | O=S1(=O)CCN([C@H]2CC[C@H](CNc3cc(-n4c(C(F)F)nc5ccccc54)nc(N4CCOCC4)n3)CC2)CC1 [Example 229] | 10 | 6700
29 | O=S1(=O)CCN([C@H]2CC[C@H](CNc3nc(N4CCOCC4)cc(-n4c(C(F)F)nc5ccccc54)n3)CC2)CC1 [Example 231] | 8.2 | 1500
30 | CC(F)CN(C)[C@H]1CC[C@H](CNc2nc(N3CCOCC3)cc(-n3c(C(F)F)nc4ccccc43)n2)CC1 (some centres unmarked) [Example 330] | 8.6 | 5500
31 | CCN(C(C)CF)[C@H]1CC[C@H](CNc2nc(N3CCOCC3)cc(-n3c(C(F)F)nc4ccccc43)n2)CC1 (some centres unmarked) [Example 344] | 14 | 1000
32 | CC(F)C(C)N(C)[C@H]1CC[C@H](CNc2nc(N3CCOCC3)cc(-n3c(C(F)F)nc4ccccc43)n2)CC1 (some centres unmarked) [Example 384] | 16 | 1600
33 | CC(C)(O)CN(CC(C)(C)O)[C@H]1CC[C@H](CNc2nc(N3CCOCC3)cc(-n3c(C(F)F)nc4ccccc43)n2)CC1 [Example 396] | 13 | 2300
34 | CCOCCN(C)[C@H]1CC[C@H](CNc2nc(N3CCOCC3)cc(-n3c(C(F)F)nc4ccccc43)n2)CC1 [Example 397] | 23 | 2900
35 | COCCN(CC(C)(C)O)[C@H]1CC[C@H](CNc2nc(N3CCOCC3)cc(-n3c(C(F)F)nc4ccccc43)n2)CC1 [Example 401] | 15 | 3500
36 | CCN(CC(C)(C)O)[C@H]1CC[C@H](CNc2nc(N3CCOC[C@H]3C)cc(-n3c(C(F)F)nc4ccccc43)n2)CC1 [Example 402] | 3.6 | 610
37 | C#CCN(CC#C)[C@H]1CC[C@H](CNc2nc(N3CCOCC3)cc(-n3c(C(F)F)nc4ccccc43)n2)CC1 [Example 423] | 11 | 4200
38 | C#CCN(C(C)C(C)(C)O)[C@H]1CC[C@H](CNc2nc(N3CCOCC3)cc(-n3c(C(F)F)nc4ccccc43)n2)CC1 (some centres unmarked) [Example 481] | 8.9 | 1100
39 | FC[C@@H]1CCCN1[C@H]1CC[C@@H](COc2cc(-n3c(C(F)F)nc4ccccc43)nc(N3CCOCC3)n2)CC1 [Example 483] | 15 | 8700
40 | FC[C@@H]1CCCN1[C@H]1CC[C@@H](CNc2cc(-n3c(C(F)F)nc4ccccc43)nc(N3CCOCC3)n2)CC1 [Example 485] | 31 | > 10000
41 | CCN(C(=O)COC)[C@H]1CC[C@H](CNc2nc(N3CCOCC3)cc(-n3c(C(F)F)nc4ccccc43)n2)CC1 [Example 499] | 11 | 1500
